Values after ≈ are worked out from the molar mass of the structure shown.
What was measured:
OV = test: XTT cytotoxicity assay, OV; type: cell-based
[1] = test system: MCF-7 human breast cancer cells; test: [14C]acetate incorporation into total lipids; type: cell-based; settings: MCF7
Procedure: Measurement of [^14 C]acetate Incorporation into Total Lipids and Determination of IC50 of Compounds
This assay measures the incorporation of [^14C]acetate into total lipids and is a measure of fatty acid synthesis pathway activity in vitro. It is utilized to measure inhibition of fatty acid synthesis in vitro.
MCF-7 human breast cancer cells cultured as above, are plated at 5×10^4 cells per well in 24-well plates. Following overnight incubation, the compounds to be tested, solubilized in DMSO, are added at 5, 10, and 20 μg/ml in triplicate, with lower concentrations tested if necessary. DMSO is added to triplicate wells for a vehicle control. C75 is run at 5 and 10 μg/ml in triplicate as positive controls. After 4 hours of incubation, 0.25 μCi of [^14C]acetate (10 μl volume) is added to each well.
After 2 hours of additional incubation, medium is aspirated from the wells and 800 μl of chloroform:methanol (2:1) and 700 μl of 4 mM MgCl2 is added to each well. Contents of each well are transferred to 1.5 Eppendorf tubes, and spun at full-speed for 2 minutes in a high-speed Eppendorf Microcentrifuge 5415D. After removal of the aqueous (upper) layer, an additional 700 μl of chloroform:methanol (2:1) and 500 μl of 4 mM MgCl2 are added to each tube and then centrifuged for 1 minutes as above. The aqueous layer is removed with a Pasteur pipette and discarded. An additional 400 μl of chloroform:methanol (2:1) and 200 μl of 4 mM MgCl2 are added to each tube, then centrifuged and aqueous layer is discarded. The lower (organic) phase is transferred into a scintillation vial and dried at 40° C. under N2 gas. Once dried, 3 ml of scintillant (APB #NBC5104) is added and vials are counted for ^14C. The Beckman Scintillation counter calculates the average cpm values for triplicates.
The IC50 for the compounds is defined as the concentration of drug leading to a 50% reduction in [^14C]acetate incorporation into lipids compared to controls. This is determined by plotting the average cpm for each inhibitor concentration tested, performing linear regression and computing the best-fit line, r^2 values, and 95% confidence intervals. The average cpm values are computed by the Beckman scintillation counter (Model LS6500) for each compound concentration. Computation of linear regression, best-fit line, r^2, and 95% confidence intervals are calculated using Prism Version 3.0 (Graph Pad Software).

FAO = FAO SC 150 / FAO Max; settings: for FAO Max: at the concentration given under E18
[2] = test system: MCF-7 human breast cancer cells; test: XTT cytotoxicity assay, MCF-7 (M); type: cell-based; settings: Homo sapiens, MCF7; (M) or no code; MCF-7, 72 hours
Procedure: The XTT assay is a non-radioactive alternative for the [^51Cr] release cytotoxicity assay. XTT is a tetrazolium salt that is reduced to a formazan dye only by metabolically active, viable cells. The reduction of XTT is measured spectrophotometrically as OD490-OD650.
To measure the cytotoxicity of specific compounds against cancer cells, 9×10^3 MCF-7 human breast cancer cells, obtained from the American Type Culture Collection are plated per well in 96 well plates in DMEM medium with 10% fetal bovine serum, insulin, penicillin, and streptomycin. Following overnight culture at 37° C. and 5% CO2, the compounds to be tested, dissolved in DMSO, are added to the wells in 1 μl volume at the following concentrations: 80, 40, 20, 10, 5, 2.5, 1.25, and 0.625 μg/ml in triplicate. Additional concentrations are tested if required. 1 μl of DMSO is added to triplicate wells are the vehicle control. C75 is run at 40, 20, 10, […], 10, and 5 in triplicate as positive controls.
After 72 hours of incubation, cells are incubated for 4 hours with the XTT reagent as per manufacturer's instructions (Cell Proliferation Kit II (XTT) Roche). Plates are read at OD490 and OD650 on a Molecular Devices SpectraMax Plus Spectrophotometer. Three wells containing the XTT reagent without cells serve as the plate blank. XTT data are reported as OD490-OD650. Averages and standard error of the mean are computed using SOFTmax Pro software ([…]).
The IC50 for the compounds is defined as the concentration of drug leading to a 50% reduction in OD400-OD650 compared to controls. The OD400-OD650 are computed by the SOFTmax PRO software (Molecular Devices) for each compound concentration. IC50 is calculated by linear regression, plotting the FAS activity as percent of control versus drug concentrations. Linear regression, best-fit line, r^2, and 95% confidence intervals are determined using Prism Version 3.0 (Graph Pad Software).

H = test: Crystal violet cell growth assay, H; type: cell-based; settings: read-out: Cr. Violet (IC50)
Procedure: Crystal Violet Cell Growth Assay
The crystal violet assay measure cell growth but not cytotoxicity. This assay employs crystal violet staining of fixed cells in 96-well plates with subsequent solubilization and measurement of OD490 on a spectrophotometer. The OD490 corresponds to cell growth per unit time measured. Cells are treated with the compounds of interest or vehicle controls and IC50 for each compound is computed.
To measure the cytotoxicity of specific compounds against cancer cells, 5×10^4 MCF-7 human breast cancer cells, obtained from the American Type Culture Collection are plated per well in 24 well plates in DMEM medium with 10% fetal bovine serum, penicillin, and streptomycin. Following overnight culture at 37° C. and 5% CO2, the compounds to be tested, dissolved in DMSO, are added to the wells in 1 μl volume at the following concentrations: 50, 40, 30, 20, and 10 μg/ml in triplicate. Additional concentrations are tested if required. 1 μl of DMSO is added to triplicate wells are the vehicle control. C75 is run at 10, and 5 μg/ml in triplicate as positive controls.
After 72 hours of incubation, cells are stained with 0.5 ml of Crystal Violet stain (0.5% in 25% methanol) in each well. After 10 minutes, wells are rinsed, air dried, and then solubilized with 0.5 ml 10% sodium dodecylsulfate with shaking for 2 hours. Following transfer of 100 μl from each well to a 96-well plate, plates are read at OD490 on a Molecular Devices SpectraMax Plus Spectrophotometer Average OD490 values are computed using SOFTmax Pro Software (Molecular Devices) and IC50 values are determined by linear regression analysis using Prism version 3.02 (Graph Pad Software, San Diego).

Row | IC50 [1] [µg/mL] | SMILES | IC50 (OV) [µg/mL] | FAO Max: concentration at which the maximum was seen (FAO) | FAO SC 150 (FAO) | FAO Max (FAO) | IC50 [2] [µg/mL] | IC50 (H) [µg/mL]
1 | > 80 | CCCCCCCCC1(C)SC(=O)C=C1OCC(=O)NNc1nc2ccccc2s1 (single isomer, unassigned) [Compound 17, (5-Methyl-5-octyl-2-oxo-thiophen-4-yloxy)-acetic-acid-N′-(2-benzothiazole)-hydrazide] | 38.7 (≈ 86.5 µM) | 6.25 µg/mL | 4.9 µg/mL | 167% @ | 74 (≈ 165 µM) | 17.8 (≈ 39.8 µM)
2 | 7.2 (≈ 18.4 µM) | CCCCCCCCC1(C)SC(=O)C=C1OCC(=O)NNc1ccccc1 (stereo not drawn) [Compound 10, (5-Methyl-5-octyl-2-oxo-thiophen-4-yloxy)-acetic-acid-N′-phenylhydrazide] | 13.2 (≈ 33.8 µM) | 6.25 µg/mL | Neg | 126% at | 6.9 (≈ 17.7 µM) | 8.4 (≈ 21.5 µM)
3 | 12 (≈ 29.7 µM) | CCCCCCCCC1(C)SC(=O)C=C1OCC(=O)NNc1cccc(C)c1 (stereo not drawn) [Compound 11, (5-Methyl-5-octyl-2-oxo-thiophen-4-yloxy)-acetic-acid-N′-(3-methylphenyl)-hydrazide] | 10.1 (≈ 25 µM) | 1.56 µg/mL | Neg | 116% @ | 9 (≈ 22.2 µM) | 21.9 (≈ 54.1 µM)
4 | 21.3 (≈ 50.6 µM) | CCCCCCCCC1(C)SC(=O)C=C1OCC(=O)NNc1ccc(OC)cc1 (stereo not drawn) [Compound 13, (5-Methyl-5-octyl-2-oxo-thiophen-4-yloxy)-acetic-acid-N′-(4-methoxyphenyl)-hydrazide] | 18 (≈ 42.8 µM) | 0.098 μg/ml ug/ml | Neg | 103% at | 9 (≈ 21.4 µM) | 12.3 (≈ 29.2 µM)
5 | 18.3 (≈ 39.8 µM) | CCCCCCCCC1(C)SC(=O)C=C1OCC(=O)NNc1ccc(Cl)cc1Cl (stereo not drawn) [Compound 14, (5-Methyl-5-octyl-2-oxo-thiophen-4-yloxy)-acetic-acid-N′-(2,4-dichlorophenyl)-hydrazide] | 12.8 (≈ 27.9 µM) | 0.098 μg/ml ug/ml | Neg | 100% at | 6.9 (≈ 15 µM) | 7.3 (≈ 15.9 µM)
6 | 13.3 (≈ 28.9 µM) | CCCCCCCCC1(C)SC(=O)C=C1OCC(=O)NNc1ccc(Cl)c(Cl)c1 (stereo not drawn) [Compound 15, (5-Methyl-5-octyl-2-oxo-thiophen-4-yloxy)-acetic-acid-N′-(3,4-dichlorophenyl)-hydrazide] | 15.2 (≈ 33.1 µM) | 0.395 μg/ml ug/ml | Neg | 100% at | 11.4 (≈ 24.8 µM) | 8.5 (≈ 18.5 µM)
